The subject of one experiment is gastrointestinal transit. Description: Restoration of gastrointestinal motility in opioid induced constipation (loperamide). The following applies: oral gavage 15 mg/kg, loperamide s.c., Evans Blue small intestinal transit 30 minutes. The class given is in vivo, mice. The procedure: Approximately eight-week old, female, CD1 […] are purchased from Envigo (Livermore, Calif.), are housed 4 per cage and acclimated for at least 48 hours before study initiation. Animals are fed standard laboratory rodent chow Harlan Teklad Global 2018 (Madison, Wis.). Animals have ad libitum access to food and water for the duration of the acclimation period and are maintained in a temperature and humidity controlled room on a standard light/dark cycle of 6 AM to 6 PM. Following an overnight fast, with free access to water, animals are dosed by oral gavage with varying doses of test compound or vehicle (3 mM HCl, 0.01% Tween80), at a dose volume of 5 mL/kg. […] For an individual animal, the length travels by the Evans Blue dye front is divided by the length of the whole small intestine, measured from the pylorus to the cecum, and multiplied by 100, to provide the distance of the small intestine travelled by the dye as a percentage.

Experiment [1] concerns absorption of sodium from the intestinal lumen. Put plainly: Inhibition of intestinal sodium absorption in rats. The class given is in vivo, Sprague Dawley rats. The following applies: 13-hours post-dose; for response vs control in vivo at 0.003 mg/kg / response vs control in vivo at 0.01 mg/kg / response vs control in vivo at 0.03 mg/kg / response vs control in vivo at 0.1 mg/kg / response vs control in vivo at 0.3 mg/kg: Rattus norvegicus, Sprague Dawley rats, read-out: Urinary Na (% of Vehicle, out/in); for response vs control in vivo at 0.003 mg/kg: oral gavage 0.003 mg/kg; for response vs control in vivo at 0.01 mg/kg: oral gavage 0.01 mg/kg; for response vs control in vivo at 0.03 mg/kg: oral gavage 0.03 mg/kg; for response vs control in vivo at 0.1 mg/kg: oral gavage 0.1 mg/kg; for FFS (1-5): rats, group median fecal form score, 1 normal pellet to 5 liquid fecal streams; for response vs control in vivo at 0.3 mg/kg: oral gavage 0.3 mg/kg. Here is the method: Urinary sodium excretion and fecal form were measured to assess the ability of selected example compounds to inhibit the absorption of sodium from the intestinal lumen. Eight-week old, male, Sprague Dawley rats were purchased from Envigo (Livermore, Calif.), were housed 2 per cage and acclimated for at least 48 hours before study initiation. Animals were fed. Harlan Teklad Global TD.160470 rodent chow (Madison, Wis.), standard laboratory rodent chow Harlan Teklad Global 2018 with the addition of 0.4% inorganic phosphorous. Animals had ad libitum access to food and water for the duration of the study and were maintained in a temperature and humidity controlled room on a standard light/dark cycle of 6 AM to 6 PM. On the day of study initiation, rats (n=5/group) were dosed by oral gavage with test compound or vehicle (3 mM HCl, 0.01% Tween80) at a dose volume of […]. Immediately after dose administration animals were placed in individual metabolic cages. At 13-hours post-dose, urine samples were collected and fecal form was assessed. In addition, the weight of food consumed over the 13-hour period was measured and recorded. Fecal forms were scored according to a common scale associated with increasing fecal water to the wettest observation in the cage's collection funnel (1, normal pellet; 2, pellet adhering to sides of collection funnel due to moisture; 3, loss of normal pellet shape; 4, complete loss of shape with a blotting pattern; 5, liquid fecal streams evident). Fecal form score (FFS) was calculated for each group as the median of each individual rat's FFS within the group and reported in Table 7. Fecal samples were dried using a lyophilizer for at least 3 days, following which dry weight was recorded and fecal fluid content was calculated based on the difference between the wet and dry stool weights. Fecal fluid content was calculated as a change from the vehicle group mean. For urine samples, the volumes were determined gravimetrically. Urine samples were analyzed on an ion chromatography system (Thermo Fisher ICS-3000 or ICS-5000+) coupled with conductivity detectors. Chromatographic separation of cations was performed using an IonPac CS12A (Thermo Fisher) 2×250 mm analytical column with an isocratic elution using 25 mM methanesulfonic acid. Concentrations were interpolated from a standard curve (prepared in 10 mM HCl) for sodium based on retention time and peak area. Thirteen-s-hour urinary sodium excretion (mg/13-hours) was calculated by multiplying urinary sodium concentration by 13-hour urine volume. The urinary sodium excretion of compound treatment was normalized to dietary sodium intake and expressed as a percentage of the vehicle mean.

In the case of `N#Cc1cc(Cl)cc2c1C[C@H](N1CCNCC1)[C@H]2Oc1ccc(S(=O)(=O)NCCOCCOCCNC(=O)NCCCCNC(=O)NCCOCCOCCNS(=O)(=O)c2ccc(O[C@H]3c4cc(Cl)cc(C#N)c4C[C@@H]3N3CCNCC3)cc2)cc1` [Example 41, 3-[2-(2-[2-[(4-[[(1S,2S)-6-Chloro-4-cyano-2-(piperazin-1-yl)-2,3-dihydro-1H-inden-1-yl]oxy]benzene)sulfonamido]ethoxy]ethoxy)ethyl]-1-[4-([[2-(2-[2-[(4-[[(1S,2S)-6-chloro-4-cyano-2-(piperazin-1-yl)-2,3-dihydro-1H-inden-1-yl]oxy]benzene)sulfonamido]ethoxy]ethoxy)ethyl]carbamoyl]amino)butyl]urea; bis(trifluoroacetic acid)], the “% Restoration of Transit” value in the experiment with gastrointestinal transit is recorded as “A (<20%)”. Moreover, the response vs control in vivo at 0.003 mg/kg in experiment [1] was over 70%. Moreover, the response vs control in vivo at 0.01 mg/kg in experiment [1] is over 70%. In addition, the response vs control in vivo at 0.03 mg/kg in experiment [1] was 40 to 70%. For the same molecule, the response vs control in vivo at 0.1 mg/kg in experiment [1] is under 40%. Moreover, the “FFS (1-5)” value in experiment [1] (0.003 mg/kg) worked out at 2; in experiment [1] (0.01 mg/kg), 2; in experiment [1] (0.03 mg/kg), 2; in experiment [1] (0.1 mg/kg), 5.
Regarding `N#Cc1cc(Cl)cc2c1C[C@H](N1CCNCC1)[C@H]2Oc1ccc(S(=O)(=O)NC2CCN(C(=O)CCCNC(=O)NCCCCNC(=O)NCCCC(=O)N3CCC(NS(=O)(=O)c4ccc(O[C@H]5c6cc(Cl)cc(C#N)c6C[C@@H]5N5CCNCC5)cc4)CC3)CC2)cc1` [Example 115], the “% Restoration of Transit” value in the experiment with gastrointestinal transit was “B (20-40%)”. Moreover, in experiment [1], the response vs control in vivo at 0.003 mg/kg is over 70%, the response vs control in vivo at 0.01 mg/kg was over 70%, the response vs control in vivo at 0.03 mg/kg was over 70% and the response vs control in vivo at 0.1 mg/kg was under 40%. Moreover, the “FFS (1-5)” value in experiment [1] (0.003 mg/kg) came out at 1. Besides, the “FFS (1-5)” value in experiment [1] (0.01 mg/kg) is 2. Further, in experiment [1] (0.03 mg/kg), the “FFS (1-5)” value was determined as 2. In addition, the “FFS (1-5)” value in experiment [1] (0.1 mg/kg) worked out at 2.
Take `N#Cc1cc(Cl)cc2c1C[C@H](N1CCNCC1)[C@H]2Oc1ccc(S(=O)(=O)NC2CCN(CCOCCNC(=O)NCCCCNC(=O)NCCOCCN3CCC(NS(=O)(=O)c4ccc(O[C@H]5c6cc(Cl)cc(C#N)c6C[C@@H]5N5CCNCC5)cc4)CC3)CC2)cc1` [Example 123, 4-([(1S,2S)-6-Chloro-4-cyano-2-(piperazin-1-yl)-2,3-dihydro-1H-inden-1-yl]oxy)-N-[1-(20-[4-([4-([(1S,2S)-6-chloro-4-cyano-2-(piperazin-1-yl)-2,3-dihydro-1H-inden-1-yl]oxy)phenyl]sulfonamide]piperidin-1-yl)-7,14-dioxo-3,18-dioxa-6,8,13,15-tetraazaicosyl]piperidin-4-yl)benzenesulfonamide]: the “% Restoration of Transit” value with gastrointestinal transit is on record as “A (<20%)”. For the same molecule, in experiment [1], the response vs control in vivo at 0.03 mg/kg is over 70%, the response vs control in vivo at 0.1 mg/kg is 40 to 70% and the response vs control in vivo at 0.3 mg/kg was under 40%. Moreover, the “FFS (1-5)” value in experiment [1] (0.03 mg/kg) is 3. Also, the “FFS (1-5)” value in experiment [1] (0.1 mg/kg) was determined as 3. In experiment [1] (0.3 mg/kg), the “FFS (1-5)” value was 3.
With `C[C@@H]1CN([C@H]2Cc3c(C#N)cc(Cl)cc3[C@@H]2Oc2ccc(S(=O)(=O)N[C@H]3CCN(CCOCCNC(=O)NCCCCNC(=O)NCCOCCN4CC[C@H](NS(=O)(=O)c5ccc(O[C@H]6c7cc(Cl)cc(C#N)c7C[C@@H]6N6CCN[C@H](C)C6)cc5)C4)C3)cc2)CCN1` [Example 132, 4-([(1S,2S)-6-Chloro-4-cyano-2-[(R)-3-methylpiperazin-1-yl]-2,3-dihydro-1H-inden-1-yl]oxy)-N—[(S)-1-(20-[(S)-3-([4-([(1S,2S)-6-chloro-4-cyano-2-[(R)-3-methylpiperazin-1-yl]-2,3-dihydro-1H-inden-1-yl]oxy)phenyl]sulfonamido)pyrrolidin-1-yl]-7,14-diaxo-3,18-dioxa-5,8,13,15-tetraazaicosyl)pyrrolidin-3-yl]benzenesulfonamide; bis(trifluoroacetic acid)], the “% Restoration of Transit” value in the experiment with gastrointestinal transit is “C (>40%)”. Moreover, in experiment [1], the response vs control in vivo at 0.03 mg/kg was over 70%, the response vs control in vivo at 0.1 mg/kg was in the range of 40 to 70% and the response vs control in vivo at 0.3 mg/kg is under 40%. Moreover, the “FFS (1-5)” value in experiment [1] (0.03 mg/kg) worked out at 3. In addition, the “FFS (1-5)” value in experiment [1] (0.1 mg/kg) is reported as 3. For the same molecule, the “FFS (1-5)” value in experiment [1] (0.3 mg/kg) is 3.

For the origin of these results see US11242337B2, “Compounds useful for treating gastrointestinal tract disorders” (Ardelyx, Inc., priority 2017, dated 2022).
